From patent publication US9920038B2, “Methyl oxazole orexin receptor antagonists” (MERCK SHARP & DOHME CORP., priority 2014, dated 2018)
Like-named read-outs stand apart in the source and are kept apart here.

Experiments:
human orexin-2 receptor = human orexin-2 receptor (Homo sapiens (Human), UniProt O43614); assay: hOX2R FLIPR Ca2+ flux assay; type: cell-based; settings: CHO cells expressing human orexin-2 receptor; agonist 70 pM Ala-6,12 orexin-A
Procedure: In a typical experiment the OX1 and OX2 receptor antagonistic activity of the compounds of the present invention was determined in accordance with the following experimental method. For intracellular calcium measurements, Chinese hamster ovary (CHO) cells expressing the rat orexin-1 receptor or the human orexin-2 receptor, are grown in Iscove's modified DMEM containing 2 mM L-glutamine, […], 1% hypoxanthine-thymidine supplement, 100 U/ml penicillin, 100 μg/ml streptomycin and 10% heat-inactivated fetal calf serum (FCS). The cells are seeded at 20,000 cells/well into Becton-Dickinson black 384-well clear bottom sterile plates coated with poly-D-lysine. All reagents were from GIBCO-Invitrogen Corp. The seeded plates are incubated overnight at 37° C. and 5% CO2. Ala-6,12 human orexin-A as the agonist is prepared as a 1 mM stock solution in 1% bovine serum albumin (BSA) and diluted in assay buffer (HBSS containing 20 mM HEPES, 0.1% BSA and 2.5 mM probenecid, pH7.4) for use in the assay at a final concentration of 70 pM. Test compounds are prepared as 10 mM stock solution in DMSO, then diluted in 384-well plates, first in DMSO, then assay buffer. On the day of the assay, cells are washed 3 times with 100 μl assay buffer and then incubated for 60 min (37° C., 5% CO2) in 60 μl assay buffer containing […] Fluo-4AM ester, 0.02% pluronic acid, and 1% BSA. The dye loading solution is then aspirated and cells are washed 3 times with 100 μl assay buffer. 30 μl of that same buffer is left in each well. Within the Fluorescent Imaging Plate Reader (FLIPR, Molecular Devices), test compounds are added to the plate in a volume of 25 μl, incubated for 5 min and finally 25 μl of agonist is added. Fluorescence is measured for each well at 1 second intervals for 5 minutes and the height of each fluorescence peak is compared to the height of the fluorescence peak induced by 70 pM Ala-6,12 orexin-A with buffer in place of antagonist. For each antagonist, IC50 value (the concentration of compound needed to inhibit 50% of the agonist response) is determined. Alternatively, compound potency can be assessed by a radioligand binding assay (described in Bergman et. al. Bioorg. Med. Chem. Lett. 2008, 18, 1425-1430) in which the inhibition constant (Ki) is determined in membranes prepared from CHO cells expressing either the OX1 or OX2 receptor. The intrinsic orexin receptor antagonist activity of a compound which may be used in the present invention may be determined by these assays.

hOX1R = hOX1R (Homo sapiens, UniProt O43613); assay: hOX1R FLIPR Ca2+ flux assay; type: cell-based
[1] = CHO cells expressing orexin-1 receptor, agonist 70 pM Ala-6,12 orexin-A, read-out: hOX1R FLIPR IC50

Sequence of human orexin-2 receptor (O43614 whole entry): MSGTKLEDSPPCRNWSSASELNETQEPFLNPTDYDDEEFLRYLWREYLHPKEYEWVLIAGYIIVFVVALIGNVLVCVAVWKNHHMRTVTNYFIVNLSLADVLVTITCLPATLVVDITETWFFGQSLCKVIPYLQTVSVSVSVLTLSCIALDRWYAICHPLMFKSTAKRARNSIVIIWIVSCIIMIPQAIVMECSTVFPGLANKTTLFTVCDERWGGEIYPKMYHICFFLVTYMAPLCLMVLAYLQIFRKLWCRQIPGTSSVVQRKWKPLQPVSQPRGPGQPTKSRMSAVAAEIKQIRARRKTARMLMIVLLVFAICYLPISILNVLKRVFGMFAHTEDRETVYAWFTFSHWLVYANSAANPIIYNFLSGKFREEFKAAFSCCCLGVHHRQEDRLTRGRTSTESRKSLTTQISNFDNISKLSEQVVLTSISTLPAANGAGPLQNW

SMILES | IC50 (human orexin-2 receptor) [µM] | IC50 (hOX1R; [1]) [µM] | IC50 (hOX1R) [µM]
Cc1oc(C[C@H]2CCCCN2C(=O)c2cccnc2-c2ccccc2)nc1C(C)(C)O [Example 14, (R)-(2-((4-(2-hydroxypropan-2-yl)-5-methyloxazol-2-yl)methyl)piperidin-1-yl)(2-phenylpyridin-3-yl)methanone] | 0.038 | 0.08 | 
Cc1oc(C[C@H]2CCCCN2C(=O)c2nccnc2-c2ccccn2)nc1C(C)(C)O [Example 22, (R)-(2-((4-(2-hydroxypropan-2-yl)-5-methyloxazol-2-yl)methyl)piperidin-1-yl)(3-(pyridin-2-yl)pyrazin-2-yl)methanone] | 0.558 | 2.93 | 
Cc1oc(C[C@H]2CCCCN2C(=O)c2ccccc2C2CC2(F)F)nc1C(C)(C)O (stereo partly drawn) [Example 27, (2-(2,2-difluorocyclopropyl)phenyl)((R)-2-((4-(2-hydroxypropan-2-yl)-5-methyloxazol-2-yl)methyl)piperidin-1-yl)methanone] | 0.038 | 0.473 | 
Cc1oc(C[C@H]2CCCCN2C(=O)c2ccccc2CC(F)(F)F)nc1C(C)(C)O [Example 18, (R)-(2-((4-(2-hydroxypropan-2-yl)-5-methyloxazol-2-yl)methyl)piperidin-1-yl)(2-(2,2,2-trifluoroethyl)phenyl)-methanone] | 0.118 | 1.69 | 
Cc1oc(C[C@H]2CCCCN2C(=O)c2ccccc2OCC(F)F)nc1C(C)(C)O [Example 20, (R)-(2-(2,2-difluoroethoxy)phenyl)(2-((4-(2-hydroxypropan-2-yl)-5-methyloxazol-2-yl)methyl)piperidin-1-yl)methanone] | 0.112 | 0.69 | 
CCOc1ccccc1C(=O)N1CCCC[C@@H]1Cc1nc(C(C)(C)O)c(C)o1 [Example 8, (R)-(2-ethoxyphenyl)(2-((4-(2-hydroxypropan-2-yl)-5-methyloxazol-2-yl)methyl)piperidin-1-yl)methanone] | 0.028 | 0.256 | 
Cc1oc(C[C@H]2CCCCN2C(=O)c2nccnc2N2CCCC2)nc1C(C)(C)O [Example 23, (R)-(2-((4-(2-hydroxypropan-2-yl)-5-methyloxazol-2-yl)methyl)piperidin-1-yl)(3-(pyrrolidin-1-yl)pyrazin-2-yl)methanone] | > 10 | > 10 | 
Cc1oc(C[C@H]2CCCCN2C(=O)c2ccccc2N2CCCC2)nc1C(C)(C)O [Example 7, (R)-(2-((4-(2-hydroxypropan-2-yl)-5-methyloxazol-2-yl)methyl)piperidin-1-yl)(2-(pyrrolidin-1-yl)phenyl)methanone] | 0.051 | 0.067 | 
Cc1oc(C[C@H]2CCCCN2C(=O)c2cccnc2OCC(F)(F)F)nc1C(C)(C)O [Example 5, (R)-(2-((4-(2-hydroxypropan-2-yl)-5-methyloxazol-2-yl)methyl)piperidin-1-yl)(2-(2,2,2-trifluoroethoxy)pyridin-3-yl)methanone] | 0.019 | 0.162 | 
Cc1oc(C[C@H]2CCCCN2C(=O)c2cccnc2CC(F)(F)F)nc1C(C)(C)O [Example 11, (R)-(2-((4-(2-hydroxypropan-2-yl)-5-methyloxazol-2-yl)methyl)piperidin-1-yl)(2-(2,2,2-trifluoroethyl)pyridin-3-yl)methanone] |  | > 10 | 
Cc1oc(C[C@H]2CCCCN2C(=O)c2nccnc2-n2cccn2)nc1C(C)(C)O [Example 26, (R)-(3-(1H-pyrazol-1-yl)pyrazin-2-yl)(2-((4-(2-hydroxypropan-2-yl)-5-methyloxazol-2-yl)methyl)piperidin-1-yl)methanone] | 0.186 | 1.41 | 
Cc1oc(C[C@H]2CCCCN2C(=O)c2cccnc2OC(C)C)nc1C(C)(C)O [Example 6, (R)-(2-((4-(2-hydroxypropan-2-yl)-5-methyloxazol-2-yl)methyl)piperidin-1-yl)(2-isopropoxypyridin-3-yl)methanone] | 0.036 | 0.223 | 
Cc1oc(C[C@H]2CCCCN2C(=O)c2ccc(F)cc2-n2nccn2)nc1C(C)(C)O [Example 4, (R)-(4-fluoro-2-(2H-1,2,3-triazol-2-yl)phenyl)(2-((4-(2-hydroxypropan-2-yl)-5-methyloxazol-2-yl)methyl)piperidin-1-yl)methanone] | 0.025 | 0.039 | 
Cc1oc(C[C@H]2CCCCN2C(=O)c2ncccc2-n2nccn2)nc1C(C)(C)O [Example 21, (R)-(3-(2H-1,2,3-triazol-2-yl)pyridin-2-yl)(2-((4-(2-hydroxypropan-2-yl)-5-methyloxazol-2-yl)methyl)piperidin-1-yl)methanone] | 0.225 | 1.85 | 
Cc1oc(C[C@H]2CCCCN2C(=O)c2ccccc2-n2cccn2)nc1C(C)(C)O [Example 10, (R)-(2-(1H-pyrazol-1-yl)phenyl)(2-((4-(2-hydroxypropan-2-yl)-5-methyloxazol-2-yl)methyl)piperidin-1-yl)methanone] | 0.051 | 0.129 | 
Cc1oc(C[C@H]2CCCCN2C(=O)c2ccccc2OC(F)F)nc1C(C)(C)O [Example 15, (R)-(2-(difluoromethoxy)phenyl)(2-((4-(2-hydroxypropan-2-yl)-5-methyloxazol-2-yl)methyl)piperidin-1-yl)methanone] | 0.098 | 1.09 | 
Cc1oc(C[C@H]2CCCCN2C(=O)c2ccccc2-n2ncnn2)nc1C(C)(C)O [Example 28, (R)-(2-(2H-tetrazol-2-yl)phenyl)(2-((4-(2-hydroxypropan-2-yl)-5-methyloxazol-2-yl)methyl)piperidin-1-yl)methanone] | 0.152 | 0.486 | 
COc1ccc(C(=O)N2CCCC[C@@H]2Cc2nc(C(C)(C)O)c(C)o2)c(C2CC2)n1 [Example 19, (R)-(2-cyclopropyl-6-methoxypyridin-3-yl)(2-((4-(2-hydroxypropan-2-yl)-5-methyloxazol-2-yl)methyl)piperidin-1-yl)methanone] | 0.503 | 2.31 | 
CCOc1ncccc1C(=O)N1CCCC[C@@H]1Cc1nc(C(C)(C)O)c(C)o1 [Example 2, (R)-(2-ethoxypyridin-3-yl)(2-((4-(2-hydroxypropan-2-yl)-5-methyloxazol-2-yl)methyl)piperidin-1-yl)methanone] | 0.02 | 0.152 | 
Cc1ccc(-n2nccn2)c(C(=O)N2CCCC[C@@H]2Cc2nc(C(C)(C)O)c(C)o2)c1 [Example 30, (R)-(2-((4-(2-hydroxypropan-2-yl)-5-methyloxazol-2-yl)methyl)piperidin-1-yl)(5-methyl-2-(2H-1,2,3-triazol-2-yl)phenyl)methanone] | 0.046 | 0.05 | 
Cc1oc(C[C@H]2CCCCN2C(=O)c2ccccc2OCC(F)(F)F)nc1C(C)(C)O [Example 17, (R)-(2-((4-(2-hydroxypropan-2-yl)-5-methyloxazol-2-yl)methyl)piperidin-1-yl)(2-(2,2,2-trifluoroethoxy)phenyl)methanone] | 0.099 | 0.952 | 
CCCc1ccccc1C(=O)N1CCCC[C@@H]1Cc1nc(C(C)(C)O)c(C)o1 [Example 29, (R)-(2-((4-(2-hydroxypropan-2-yl)-5-methyloxazol-2-yl)methyl)piperidin-1-yl)(2-propylphenyl)methanone] | 0.106 | 0.794 | 
Cc1oc(C[C@H]2CCCCN2C(=O)c2cccnc2OCC(F)F)nc1C(C)(C)O [Example 16, (R)-(2-(2,2-difluoroethoxy)pyridin-3-yl)(2-((4-(2-hydroxypropan-2-yl)-5-methyloxazol-2-yl)methyl)piperidin-1-yl)methanone] | 0.049 | 0.373 | 
Cc1oc(C[C@H]2CCCCN2C(=O)c2ccccc2C2CC2)nc1C(C)(C)O [Example 3, (R)-(2-cyclopropylphenyl)(2-((4-(2-hydroxypropan-2-yl)-5-methyloxazol-2-yl)methyl)piperidin-1-yl)methanone] | 0.017 |  | 0.212
Cc1oc(C[C@H]2CCCCN2C(=O)c2ccccc2CC(F)F)nc1C(C)(C)O [Example 12, (R)-(2-(2,2-difluoroethyl)phenyl)(2-((4-(2-hydroxypropan-2-yl)-5-methyloxazol-2-yl)methyl)piperidin-1-yl)methanone] | 0.098 | 2.18 | 
Cc1oc(C[C@H]2CCCCN2C(=O)c2cccnc2-n2cccn2)nc1C(C)(C)O [Example 13, (R)-(2-(1H-pyrazol-1-yl)pyridin-3-yl)(2-((4-(2-hydroxypropan-2-yl)-5-methyloxazol-2-yl)methyl)piperidin-1-yl)methanone] | 0.024 | 0.051 | 
